Data reported in patent publication US20130040882A1, “USE OF FIBROBLAST GROWTH FACTOR FRAGMENTS” (NOVARTIS AG, priority 2003, published 2013).

Tested on: uterine gene expression
Experiment: Gene expression profiling (HGU133A) in the uterus of ovariectomized monkeys treated with estradiol, tamoxifen or raloxifene
Assay type: in vivo, cynomolgus monkeys (Macaca fascicularis)
Conditions: uterus, OVX monkeys

C#C[C@]1(O)CC[C@H]2[C@@H]3CCc4cc(O)ccc4[C@H]3CC[C@@]21C [EE]
Fold change relative to SHAM control: Insulin-like growth factor binding protein 2, 36 kda: 4.4 fold | Fold change relative to SHAM control: Insulin-like growth factor binding protein 5: 2.8 fold | Fold change relative to SHAM control: Integrin, beta 5: 1.0 fold | Fold change relative to SHAM control: Intercrine-alpha, mrna sequence: 0.9 fold | Fold change relative to SHAM control: LDL receptor adaptor protein: 0.8 fold | Fold change relative to SHAM control: LIM and senescent cell antigen-like domains 1: 1.4 fold | Fold change relative to SHAM control: Laminin, beta 1: 1.0 fold | Fold change relative to SHAM control: Latent transforming growth factor beta binding protein 1: 1.7 fold | Fold change relative to SHAM control: Matrix metalloproteinase 19: 1.2 fold | Fold change relative to SHAM control: Mitogen-activated protein kinase kinase kinase kinase 4: 0.9 fold | Fold change relative to SHAM control: Nidogen (enactin): 2.6 fold | Fold change relative to SHAM control: Osteoglycin (osteoinductive factor, mimecan): 1.0 fold | Fold change relative to SHAM control: Peroxiredoxin 1: 1.6 fold | Fold change relative to SHAM control: Phosphatase and tensin homolog (mutated in multiple advanced cancers 1): 1.2 fold | Fold change relative to SHAM control: Phospholipid transfer protein: 1.3 fold | Fold change relative to SHAM control: Pituitary tumour-transforming 1 interacting protein: 0.9 fold | Fold change relative to SHAM control: Procollagen C-endopeptidase enhancer: 1.5 fold | Fold change relative to SHAM control: Procollagen-proline, 2-oxoglutarate 4-dioxygenase (proline 4-hydroxylase), alpha polypeptide II: 1.7 fold | Fold change relative to SHAM control: Progesterone receptor: 3.2 fold | Fold change relative to SHAM control: Protein tyrosine kinase 9: 1.3 fold | Fold change relative to SHAM control: SET domain, bifurcated 1: 2.3 fold | Fold change relative to SHAM control: SPARC-like 1 (mast9, hevin): 1.5 fold | Fold change relative to SHAM control: Secreted frizzled-related protein 1: 3.6 fold | Fold change relative to SHAM control: Secreted frizzled-related protein 4: 1.9 fold | Fold change relative to SHAM control: Secreted protein, acidic, cysteine-rich (osteonectin): 1.4 fold | Fold change relative to SHAM control: Serine (or cysteine) proteinase inhibitor, clade H (heat shock protein 47), member 1, (collagen binding protein 1): 1.6 fold | Fold change relative to SHAM control: Solute carrier family 22 (organic cation transporter), member 1-like: 1.6 fold | Fold change relative to SHAM control: Solute carrier family 25 (mitochondrial carrier; adenine nucleotide translocator), member 5: 1.7 fold | Fold change relative to SHAM control: Stem cell growth factor; lymphocyte secreted C-type lectin: 1.4 fold | Fold change relative to SHAM control: Tenascin C (hexabrachion): 0.9 fold | Fold change relative to SHAM control: Testis Enhanced Gene Transcript (Bax Inhibitor 1): 1.8 fold | Fold change relative to SHAM control: Thioredoxin interacting protein: 0.5 fold | Fold change relative to SHAM control: Transforming growth factor, beta-induced, 68 kda: 0.8 fold | Fold change relative to SHAM control: Ubiquinol-cytochrome c reductase, Rieske iron-sulfur polypeptide 1: 1.1 fold | Fold change relative to SHAM control: Wingless-type MMTV integration site family, member 2B: 1.5 fold | Fold change relative to SHAM control: Wingless-type MMTV integration site family, member 16: 0.9 fold | Fold change relative to OVX: Insulin receptor (Table 46): 0.8 fold | Fold change relative to SHAM control: Insulin receptor (Table 46): 1.2 fold | Fold change relative to OVX: Insulin receptor (Table 51): 0.8 fold | Fold change relative to SHAM control: Insulin receptor (Table 51): 1.2 fold | Fold change relative to OVX: Fibronectin 1 (entry with OVX average 39): 1.6 fold | Fold change relative to OVX: Bone morphogenetic protein 1 (entry with OVX average 79): 2.6 fold | Fold change relative to OVX: Bone morphogenetic protein 1 (entry with OVX average 93): 2.9 fold | Fold change relative to OVX: Insulin-like growth factor 1 (somatomedin C) (entry with OVX average 102): 5.3 fold | Fold change relative to OVX: Fibrillin 1 (Marfan syndrome) (entry with OVX average 124): 2.2 fold | Fold change relative to OVX: Collagen, type I, alpha 2 (entry with OVX average 154): 13.2 fold | Fold change relative to OVX: Insulin-like growth factor 1 (somatomedin C) (entry with OVX average 156): 6.9 fold | Fold change relative to OVX: Solute carrier family 2 (facilitated glucose/fructose transporter), member 5 (entry with OVX average 171): 4.4 fold | Fold change relative to OVX: Solute carrier family 2 (facilitated glucose/fructose transporter), member 5 (entry with OVX average 176): 3.5 fold | Fold change relative to OVX: Collagen, type IV, alpha 1 (entry with OVX average 182): 4.3 fold | Fold change relative to OVX: Cyclin-dependent kinase inhibitor 1C (p57, Kip2) (entry with OVX average 224): 0.5 fold | Fold change relative to OVX: Insulin-like growth factor 1 (somatomedin C) (entry with OVX average 310): 6.3 fold | Fold change relative to OVX: Fibronectin 1 (entry with OVX average 419): 2.4 fold | Fold change relative to OVX: Cyclin-dependent kinase inhibitor 1C (p57, Kip2) (entry with OVX average 527): 0.4 fold | Fold change relative to OVX: Fibronectin 1 (entry with OVX average 586): 2.1 fold | Fold change relative to OVX: Fibronectin 1 (entry with OVX average 648): 1.9 fold | Fold change relative to OVX: Collagen, type IV, alpha 1 (entry with OVX average 690): 3.7 fold | Fold change relative to OVX: Fibronectin 1 (entry with OVX average 757): 1.8 fold | Fold change relative to OVX: Cyclin-dependent kinase inhibitor 1C (p57, Kip2) (entry with OVX average 762): 0.5 fold | Fold change relative to OVX: ATP synthase, H+ transporting, mitochondrial F0 complex, subunit c (subunit 9) isoform 3 (entry with OVX average 811): 2.0 fold | Fold change relative to OVX: Fibrillin 1 (Marfan syndrome) (entry with OVX average 874): 3.5 fold | Fold change relative to OVX: ATP synthase, H+ transporting, mitochondrial F0 complex, subunit c (subunit 9) isoform 3 (entry with OVX average 1007): 2.0 fold | Fold change relative to OVX: Collagen, type III, alpha 1 (Ehlers-Danlos syndrome type IV, autosomal dominant) (entry with OVX average 1084): 6.8 fold | Fold change relative to OVX: Collagen, type I, alpha 2 (entry with OVX average 2757): 5.1 fold | Fold change relative to OVX: Collagen, type III, alpha 1 (Ehlers-Danlos syndrome type IV, autosomal dominant) (entry with OVX average 3445): 4.1 fold | Fold change relative to OVX: H3 histone, family 3A (entry with OVX average 9495): 1.5 fold | Fold change relative to OVX: H3 histone, family 3A (entry with OVX average 9692): 1.4 fold | Fold change relative to SHAM control: Fibronectin 1 (entry with SHAM average 100): 0.6 fold | Fold change relative to SHAM control: Bone morphogenetic protein 1 (entry with SHAM average 143): 1.4 fold | Fold change relative to SHAM control: Cyclin-dependent kinase inhibitor 1C (p57, Kip2) (entry with SHAM average 201): 0.6 fold | Fold change relative to SHAM control: Bone morphogenetic protein 1 (entry with SHAM average 205): 1.3 fold | Fold change relative to SHAM control: Insulin-like growth factor 1 (somatomedin C) (entry with SHAM average 226): 2.4 fold | Fold change relative to SHAM control: Fibrillin 1 (Marfan syndrome) (entry with SHAM average 236): 1.2 fold | Fold change relative to SHAM control: Solute carrier family 2 (facilitated glucose/fructose transporter), member 5 (entry with SHAM average 291): 2.1 fold | Fold change relative to SHAM control: Solute carrier family 2 (facilitated glucose/fructose transporter), member 5 (entry with SHAM average 317): 2.4 fold | Fold change relative to SHAM control: Insulin-like growth factor 1 (somatomedin C) (entry with SHAM average 417): 2.6 fold | Fold change relative to SHAM control: Collagen, type IV, alpha 1 (entry with SHAM average 436): 1.8 fold | Fold change relative to SHAM control: Cyclin-dependent kinase inhibitor 1C (p57, Kip2) (entry with SHAM average 459): 0.5 fold | Fold change relative to SHAM control: Collagen, type I, alpha 2 (entry with SHAM average 493): 4.1 fold | Fold change relative to SHAM control: Insulin-like growth factor 1 (somatomedin C) (entry with SHAM average 581): 3.4 fold | Fold change relative to SHAM control: Cyclin-dependent kinase inhibitor 1C (p57, Kip2) (entry with SHAM average 660): 0.5 fold | Fold change relative to SHAM control: Fibronectin 1 (entry with SHAM average 920): 1.1 fold | Fold change relative to SHAM control: ATP synthase, H+ transporting, mitochondrial F0 complex, subunit c (subunit 9) isoform 3 (entry with SHAM average 1045): 1.6 fold | Fold change relative to SHAM control: Fibronectin 1 (entry with SHAM average 1089): 1.1 fold | Fold change relative to SHAM control: Collagen, type IV, alpha 1 (entry with SHAM average 1143): 2.2 fold | Fold change relative to SHAM control: Fibronectin 1 (entry with SHAM average 1288): 0.9 fold | Fold change relative to SHAM control: Fibronectin 1 (entry with SHAM average 1301): 1.1 fold | Fold change relative to SHAM control: ATP synthase, H+ transporting, mitochondrial F0 complex, subunit c (subunit 9) isoform 3 (entry with SHAM average 1355): 1.5 fold | Fold change relative to SHAM control: Fibrillin 1 (Marfan syndrome) (entry with SHAM average 1388): 2.2 fold | Fold change relative to SHAM control: Collagen, type III, alpha 1 (Ehlers-Danlos syndrome type IV, autosomal dominant) (entry with SHAM average 2992): 2.5 fold | Fold change relative to SHAM control: Collagen, type III, alpha 1 (Ehlers-Danlos syndrome type IV, autosomal dominant) (entry with SHAM average 7354): 1.9 fold | Fold change relative to SHAM control: Collagen, type I, alpha 2 (entry with SHAM average 7758): 1.8 fold | Fold change relative to SHAM control: H3 histone, family 3A (entry with SHAM average 9408): 1.5 fold | Fold change relative to SHAM control: H3 histone, family 3A (entry with SHAM average 10239): 1.4 fold
